Measurements from patent US12419824B2, “Compounds useful for the treatment and/or care of the skin, hair, nails and/or mucous membranes” (Lubrizol Advanced Materials, Inc., priority 2019, dated 2025).

These substances were tested on Muscle bind like protein 1 (MBNL1) (assay: MBNL1 quantification in human skeletal muscle cells by TR-FRET (Examples 7, 19)). Settings: hSkMc, 0.5 mg/mL, as Example 7, versus basal control.
Type: cell-based
Method: MBNL1 induction by the peptides of the invention is evaluated by a Time resolved fluorescence resonance energy transfer (TR-FRET) assay. The aim of this study is to investigate the capacity of peptide candidates to increase MBNL1 in human skeletal muscle cells (hSkMc).
(§1) hSkMc (Innoprot) are seeded in 12-well plates at a density of 1.5×10^4 cells/well in Skeletal Muscle Cell Growth Medium (Promocell). After 72 hours incubation, medium is removed and replaced with Skeletal Muscle Cell Differentiation Medium (Promocell). 48 hours after beginning cell differentiation, fresh differentiation medium with 0.5 mg/ml of test items is added. Treatment is continued for 48 hours and non-treated cells are used as basal control. After 48 hours of treatment, cell medium is removed and added cell lysis buffer to wells. Immediately, plates are kept at −80° C. in order to improve protein extraction during the defrosting process. After 72 hours, cells are lysated by shaking the plates in an orbital rotor at room temperature for 45 minutes. Next, cell lysates are collected and assayed to quantify the level of MBNL1 protein and total protein concentration.
(§2) MBNL1 protein levels measurement is performed with Human MBNL1 Assay Kit (Cisbio) according to the manufacturer's protocol. Briefly, the kit is used to perform a TR-FRET for MBNL1 quantification. The protein is detected with the antibodies provided in the kit and quantified by a fluorescence measurement. The quantification is carried out by using a microplate reader (ClarioStar, BMG) set to 665 nm and 620 nm.
(§3) Total protein concentration of cell lysate is determined by using Pierce BCA Protein Assay Kit™ (Thermo Scientific) according to manufacturer's protocol. In brief, after adding Working Reagent to the samples and the standards, the samples are incubated. Afterwards, color change is measured with an absorbance microplate reader (Clariostar™, BMG) at 562 nm. The total protein amount is used to normalize the level of MBNL1 protein concentration obtained by the TR-FRET test in the samples.
Different peptides of the invention are tested as disclosed in Example 7 at 0.5 mg/mL.

Substance | % MBNL1
Ac-Ala-Asp-Val-Tyr-Lys-NH2 (Ac-ADVYK-NH2) [PEP14] | 145.0%
Ac-Asn-Val-Tyr-Lys-NH2 (Ac-NVYK-NH2) [PEP11] | 145.2%
Ac-Asp-Ile-Tyr-Lys-NH2 (Ac-DIYK-NH2) [PEP8] | 190.4%
Ac-Asp-Leu-Tyr-Lys-NH2 (Ac-DLYK-NH2) [PEP12] | 154.4%
Ac-Asp-Val-Phe-Lys-NH2 (Ac-DVFK-NH2) [PEP9] | 134.2%
Ac-Asp-Val-Tyr-Arg-NH2 (Ac-DVYR-NH2) [PEP10] | 158.3%
Ac-Asp-Val-Tyr-Lys-Ala-NH2 (Ac-DVYKA-NH2) [PEP15] | 145.2%
Ac-Asp-Val-Tyr-Lys-OH (Ac-DVYK-OH) [PEP4] | 378.5%
Ac-Glu-Ile-Phe-Arg-NH2 (Ac-EIFR-NH2) [PEP24] | 117.5%
Ac-Glu-Ile-Tyr-Arg-NH2 (Ac-EIYR-NH2) [PEP23] | 181.4%
Ac-Glu-Ile-Tyr-Lys-NH2 (Ac-EIYK-NH2) [PEP20] | 214.2%
Ac-Glu-Val-Tyr-Lys-NH2 (Ac-EVYK-NH2) [PEP7] | 141.5%
H-Asp-Val-Tyr-Lys-NH2 (H-DVYK-NH2) [PEP5] | 261.4%
Palm-Asp-Val-Tyr-Lys-NH2 (DVYK; HELM PEPTIDE1{[CCCCCCCCCCCCCCCC(=O)[*:2]].D.V.Y.K.[am]}$$$$V2.0; SMILES CCCCCCCCCCCCCCCC(=O)N[C@@H](CC(=O)O)C(=O)N[C@H](C(=O)N[C@@H](Cc1ccc(O)cc1)C(=O)N[C@@H](CCCCN)C(N)=O)C(C)C) [PEP3] | 127.7%
Palm-Glu-Val-Tyr-Lys-NH2 (EVYK; HELM PEPTIDE1{[CCCCCCCCCCCCCCCC(=O)[*:2]].E.V.Y.K.[am]}$$$$V2.0; SMILES CCCCCCCCCCCCCCCC(=O)N[C@@H](CCC(=O)O)C(=O)N[C@H](C(=O)N[C@@H](Cc1ccc(O)cc1)C(=O)N[C@@H](CCCCN)C(N)=O)C(C)C) [PEP13] | 147.2%

These substances were tested on Muscle bind like protein 1 (MBNL1) (assay: MBNL1 quantification by TR-FRET in hSkMc from TEBU-BIO (Example 20)). Settings: 0.5 mg/ml, versus basal control.
Type: cell-based, human
Method: as §1, §2, §3
The assay is performed as disclosed in Example 7 except that hSkMc from TEBU-BIO (Barcelona, Spain) are used. Different peptides of the invention are tested at a concentration of 0.5 mg/ml.

Substance | % MBNL1
Ac-Ala-Leu-Lys-Pro-Asn-Thr-OH (Ac-ALKPNT-OH) [PEP27] | 126.1%
H-Ala-Ile-Arg-Pro-Asn-Thr-NH2 (H-AIRPNT-NH2) [PEP44] | 240.6%
H-Ala-Leu-Arg-Pro-Asn-Thr-NH2 (H-ALRPNT-NH2) [PEP30] | 181.3%
H-Ala-Leu-Lys-Pro-Asn-NH2 (H-ALKPN-NH2) [PEP41] | 138.4%
H-Ala-Leu-Lys-Pro-Gln-Thr-NH2 (H-ALKPQT-NH2) [PEP50] | 119.4%
H-Ala-Leu-Lys-Val-Asn-Thr-NH2 (H-ALKVNT-NH2) [PEP31] | 120.0%
H-Gly-Ile-Lys-Pro-Asn-Thr-NH2 (H-GIKPNT-NH2) [PEP42] | 114.2%
H-Gly-Val-Arg-Pro-Asn-Thr-NH2 (H-GVRPNT-NH2) [PEP46] | 182.1%
H-Leu-Lys-Pro-Asn-Thr-NH2 (H-LKPNT-NH2) [PEP40] | 117.3%
